Target: T1, human Farnesoid X Receptor (FXR) ligand binding domain (GST-FXR LBD) (Homo sapiens, UniProt Q96RI1)
T1 construct: purchased Invitrogen
T1 sequence (Q96RI1 193-472 isoform Q96RI1-2): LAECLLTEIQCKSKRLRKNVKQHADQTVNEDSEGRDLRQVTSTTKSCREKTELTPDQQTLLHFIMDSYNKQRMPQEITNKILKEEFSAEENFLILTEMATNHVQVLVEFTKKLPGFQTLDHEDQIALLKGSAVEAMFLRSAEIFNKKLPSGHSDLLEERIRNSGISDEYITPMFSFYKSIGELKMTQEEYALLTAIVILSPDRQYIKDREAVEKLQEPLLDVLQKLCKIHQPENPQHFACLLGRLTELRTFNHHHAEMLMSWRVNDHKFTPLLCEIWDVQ
Assay: Human GST-FXR LBD co-activator interaction assay (HTRF)
Format: biochemical
Conditions: GST-FXR LBD / biotin-SRC-1 peptide FRET; response relative to GW4064; read-out: FXR Co-activator interaction assay (EC50)
How it was run: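 FRET (HTRF) read-out of ligand-induced binding between GST-FXR LBD and an SRC-1 peptide, detected with anti-GST cryptate and streptavidin-XL665 in buffer with 50 mM KF. Response % was normalized to DMSO and to the maximal GW4064 response. EC50 came from a four-parameter fit.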

Structure (SMILES) | EC50 [nM]
Cc1cc(C(=O)O)nc(N2C3CC[C@H]2CC(OCc2c(-c4c(F)cccc4F)noc2C2CC2)C3)n1 (some centres unmarked) [Example 22-18B] | 18
COC(=O)c1cc(N2C3CC[C@H]2CC(OCc2c(-c4c(F)cccc4F)noc2C2CC2)C3)nc(Cl)n1 (some centres unmarked) [Example 22-19] | 57
COC(=O)c1cc(Cl)nc(N2C3CC[C@H]2CC(OCc2c(-c4c(F)cccc4F)noc2C2CC2)C3)n1 (some centres unmarked) [Example 22-20] | 25
COC(=O)c1cnc(N2C3CC[C@H]2CC(OCc2c(-c4c(F)cccc4F)noc2C2CC2)C3)c(Br)c1 (some centres unmarked) [Example 22-21] | 29
COC(=O)c1cc(F)c(N2C3CC[C@H]2CC(OCc2c(-c4ccccc4OC(F)(F)F)noc2C2CC2)C3)c(F)c1 (some centres unmarked) [Example 24-1A] | 40
O=C(O)c1cc(F)c(N2C3CC[C@H]2CC(OCc2c(-c4ccccc4OC(F)(F)F)noc2C2CC2)C3)c(F)c1 (some centres unmarked) [Example 24-1B] | 8
COC(=O)c1cc(F)c(N2C3CC[C@H]2CC(OCc2c(-c4ccccc4OC(F)F)noc2C2CC2)C3)c(F)c1 (some centres unmarked) [Example 25-1A] | 28
O=C(O)c1cc(F)c(N2C3CC[C@H]2CC(OCc2c(-c4ccccc4OC(F)F)noc2C2CC2)C3)c(F)c1 (some centres unmarked) [Example 25-1B] | 3
COC(=O)c1cc(F)c(N2C3CC[C@H]2CC(OCc2c(-c4ccccc4C(F)(F)F)noc2C2CC2)C3)c(F)c1 (some centres unmarked) [Example 25-2A] | 420
O=C(O)c1cc(F)c(N2C3CC[C@H]2CC(OCc2c(-c4ccccc4C(F)(F)F)noc2C2CC2)C3)c(F)c1 (some centres unmarked) [Example 25-2B] | 5
COC(=O)c1ccc(N2C3CC[C@H]2CC(OCc2c(-c4c(F)cccc4F)noc2C2CC2)C3)c(F)c1 (some centres unmarked) [Example 25-3A] | 80
O=C(O)c1ccc(N2C3CC[C@H]2CC(OCc2c(-c4c(F)cccc4F)noc2C2CC2)C3)c(F)c1 (some centres unmarked) [Example 25-3B] | 0.9
O=C(O)c1cc(F)c(N2[C@@H]3CC[C@H]2C[C@@H](OCc2c(-c4c(F)cccc4F)noc2C2CC2)C3)c(F)c1 [Example 25-4B] | 2
COC(=O)c1ccc(N2C3CC[C@H]2CC(OCc2c(-c4ccccc4C(F)(F)F)noc2C2CC2)C3)c(F)c1 (some centres unmarked) [Example 25-5A] | 280
O=C(O)c1ccc(N2C3CC[C@H]2CC(OCc2c(-c4ccccc4C(F)(F)F)noc2C2CC2)C3)c(F)c1 (some centres unmarked) [Example 25-5B] | 1
COC(=O)c1ccc(N2C3CC[C@H]2CC(OCc2c(-c4ccccc4OC(F)F)noc2C2CC2)C3)c(F)c1 (some centres unmarked) [Example 25-6A] | 9
O=C(O)c1ccc(N2C3CC[C@H]2CC(OCc2c(-c4ccccc4OC(F)F)noc2C2CC2)C3)c(F)c1 (some centres unmarked) [Example 25-6B] | 3
NC(=O)c1ccc(N2C3CC[C@H]2CC(OCc2c(-c4ccccc4OC(F)F)noc2C2CC2)C3)c(F)c1 (some centres unmarked) [Example 27] | 2
O=C(O)c1nsc2cc(N3C4CC[C@H]3CC(OCc3c(-c5ccccc5OC(F)(F)F)noc3C3CC3)C4)ccc12 (some centres unmarked) [Example 28-1B, 6-(3-((5-Cyclopropyl-3-(2-(trifluoromethoxy)phenyl)isoxazol-4-yl)methoxy)-8-azabicyclo[3.2.1]octan-8-yl)benzo[d]isothiazole-3-carboxylic acid] | 0.6
O=C(O)c1cnc2ccc(N3C4CC[C@H]3CC(OCc3c(-c5ccccc5OC(F)(F)F)noc3C3CC3)C4)cn12 (some centres unmarked) [Example 28-2] | 16

Structure (SMILES) | EC50 [nM]
O=C(O)c1cnc2cc(N3C4CC[C@H]3CC(OCc3c(-c5ccccc5OC(F)(F)F)noc3C3CC3)C4)ccc2c1 (some centres unmarked) [Example 28-3] | 0.8
Cn1c(C(=O)O)cc2ccc(N3C4CC[C@H]3CC(OCc3c(-c5ccccc5OC(F)(F)F)noc3C3CC3)C4)cc21 (some centres unmarked) [Example 28-4] | 2
O=C(O)c1ccc(N2C3CC[C@H]2CC(OCc2c(-c4ccccc4OC(F)(F)F)noc2C2CC2)C3)cc1 (some centres unmarked) [Example 28-6] | 1.7
O=C(O)C1(c2ccc(N3C4CC[C@H]3CC(OCc3c(-c5ccccc5OC(F)(F)F)noc3C3CC3)C4)cc2)CC1 (some centres unmarked) [Example 28-7] | 21
Cc1c(N2[C@@H]3CC[C@H]2C[C@@H](OCc2c(-c4ccccc4C4CC4)noc2C2CC2)C3)ccc2oc(C(=O)O)cc12 [Example 28-8] | 10.4
Cc1c(N2C3CC[C@H]2CC(OCc2c(-c4ccccc4Cl)noc2C2CC2)C3)ccc2oc(C(=O)O)cc12 (some centres unmarked) [Example 28-9] | 0.3
Cc1c(N2C3CC[C@H]2CC(OCc2c(-c4c(F)cccc4F)noc2C2CC2)C3)ccc2oc(C(=O)O)cc12 (some centres unmarked) [Example 28-10] | 0.9
Cc1c(N2C3CC[C@H]2CC(OCc2c(-c4ccccc4OC(F)(F)F)noc2C2CC2)C3)ccc2oc(C(=O)O)cc12 (some centres unmarked) [Example 28-11] | 1.3
Cc1c(N2C3CC[C@H]2CC(OCc2c(-c4ccccc4C(F)(F)F)noc2C2CC2)C3)ccc2oc(C(=O)O)cc12 (some centres unmarked) [Example 28-12] | 2.8
O=C(O)c1cc2cc(N3C4CC[C@H]3CC(OCc3c(-c5ccccc5OC(F)(F)F)noc3C3CC3)C4)ccc2s1 (some centres unmarked) [Example 28-13] | 7.4
O=C(O)c1cc2cc(N3C4CC[C@H]3CC(OCc3c(-c5ccccc5OC(F)(F)F)noc3C3CC3)C4)ccc2o1 (some centres unmarked) [Example 28-14] | 4.6
O=C(O)c1cc2ccc(N3C4CC[C@H]3CC(OCc3c(-c5ccccc5OC(F)(F)F)noc3C3CC3)C4)cc2o1 (some centres unmarked) [Example 28-15] | 3.4
Cn1nc(C(=O)O)c2cc(N3C4CC[C@H]3CC(OCc3c(-c5ccccc5OC(F)(F)F)noc3C3CC3)C4)ccc21 (some centres unmarked) [Example 28-16] | 63
O=C(O)c1cnc2c(N3C4CC[C@H]3CC(OCc3c(-c5ccccc5OC(F)(F)F)noc3C3CC3)C4)cccc2c1 (some centres unmarked) [Example 28-17] | 9.8
O=C(O)c1noc2cc(N3C4CC[C@H]3CC(OCc3c(-c5ccccc5OC(F)(F)F)noc3C3CC3)C4)ccc12 (some centres unmarked) [Example 28-18] | 8.2
Cn1c(C(=O)O)cc2cc(N3C4CC[C@H]3CC(OCc3c(-c5ccccc5OC(F)(F)F)noc3C3CC3)C4)ccc21 (some centres unmarked) [Example 28-19] | 1.5
O=C(O)c1nsc2cc(N3C4CC[C@H]3CC(OCc3c(-c5ccccc5C(F)(F)F)noc3C3CC3)C4)ccc12 (some centres unmarked) [Example 28-21] | 2.2
O=C(O)c1nsc2cc(N3[C@@H]4CC[C@H]3C[C@@H](OCc3c(-c5ccccc5C5CC5)noc3C3CC3)C4)ccc12 [Example 28-22] | 0.2
O=C(O)c1nsc2cc(N3C4CC[C@H]3CC(OCc3c(-c5ccccc5OC(F)(F)F)noc3C3CC3)C4)c(F)cc12 (some centres unmarked) [Example 28-23] | 0.5
O=C(O)c1cn2ccc(N3C4CCC3CC(OCc3c(-c5ccccc5OC(F)(F)F)noc3C3CC3)C4)cc2n1 (centres unmarked) [Example 28-24] | 24

Structure (SMILES) | EC50 [nM]
Cn1nc(C(=O)O)c2ccc(N3C4CC[C@H]3CC(OCc3c(-c5ccccc5OC(F)(F)F)noc3C3CC3)C4)cc21 (some centres unmarked) [Example 28-25] | 1.1
Cn1nc(C(=O)O)c2ccc(N3[C@@H]4CC[C@H]3C[C@@H](OCc3c(-c5ccccc5C(F)(F)F)noc3C3CC3)C4)cc21 [Example 28-26] | 1.2
O=C(O)c1cc(F)c2nc(N3C4CC[C@H]3CC(OCc3c(C5C6CCCC65)noc3C3CC3)C4)sc2c1 (some centres unmarked) [Example 29-1] | 14
CC12CCCC1C2c1noc(C2CC2)c1COC1CC2CC[C@@H](C1)N2c1nc2c(F)cc(C(=O)O)cc2s1 (some centres unmarked) [Example 29-2] | 8
O=C(O)c1cc(F)c2nc(N3[C@@H]4CC[C@H]3C[C@@H](OCc3c(C5CCCC5)noc3C3CC3)C4)sc2c1 [Example 29-3] | 11
O=C(O)c1cc(F)c2nc(N3[C@@H]4CC[C@H]3C[C@@H](OCc3c(C5CC6(CC6)C5)noc3C3CC3)C4)sc2c1 [Example 29-4] | 11
C[C@@H]1C(c2noc(C3CC3)c2COC2CC3CC[C@@H](C2)N3c2nc3c(F)cc(C(=O)O)cc3s2)C[C@@H]2C[C@H]1C2(C)C (some centres unmarked) [Example 29-5] | 6
O=C(O)c1cc(F)c2nc(N3C4CC[C@H]3CC(OCc3c(C5CCCCC56CC6)noc3C3CC3)C4)sc2c1 (some centres unmarked) [Example 29-6] | 2
O=C(O)c1cc(F)c2nc(N3C4CC[C@H]3CC(OCc3c(C5CCC6CC6C5)noc3C3CC3)C4)sc2c1 (some centres unmarked) [Example 29-7] | 5
Cc1ccccc1-c1noc(C2CC2)c1COC1CC2CC[C@@H](C1)N2c1nc2c(F)cc(C(=O)O)cc2s1 (some centres unmarked) [Example 30-1] | 0.3
Cc1ccccc1-c1noc(C2CC2)c1CO[C@H]1C[C@H]2CC[C@@H](C1)N2c1ccc(C(=O)O)cn1 [Example 30-2] | 10
Cc1cc(C(=O)O)nc(N2C3CC[C@H]2CC(OCc2c(-c4ccccc4C)noc2C2CC2)C3)n1 (some centres unmarked) [Example 30-3] | 15
Cc1ccccc1-c1noc(C2CC2)c1CO[C@H]1C[C@H]2CC[C@@H](C1)N2c1nc2ccc(C(=O)O)cc2s1 [Example 30-4] | 0.7
COc1cc(C(=O)O)cc2sc(N3C4CC[C@H]3CC(OCc3c(-c5ccccc5C)noc3C3CC3)C4)nc12 (some centres unmarked) [Example 30-5] | 0.4
O=C(O)c1ccc2nc(N3[C@@H]4CC[C@H]3C[C@@H](OCc3c(-c5ccc(F)cc5)noc3C3CC3)C4)sc2c1 [Example 30-6] | 42
COc1cc(C(=O)O)cc2sc(N3C4CC[C@H]3CC(OCc3c(-c5ccc(F)cc5)noc3C3CC3)C4)nc12 (some centres unmarked) [Example 30-7] | 18
COc1cc(C(=O)O)cc2sc(N3[C@@H]4CC[C@H]3C[C@@H](OCc3c(-c5cccc(F)c5)noc3C3CC3)C4)nc12 [Example 30-8] | 21
O=C(O)c1ccc(N2[C@@H]3CC[C@H]2C[C@@H](OCc2c(-c4cccc(F)c4)noc2C2CC2)C3)nc1 [Example 30-9] | 340
Cc1cc(C(=O)O)nc(N2C3CC[C@H]2CC(OCc2c(-c4cccc(F)c4)noc2C2CC2)C3)n1 (some centres unmarked) [Example 30-10] | 480

Reference: patent publication US9150568B2, “Compositions and methods for modulating FXR” (NOVARTIS AG, priority 2010, dated 2015)
